Experimental data as given in publication PMC7272432, “Amyloid Aggregation of Insulin: An Interaction Study of Green Tea Constituents” (Scientific Reports, 2020).

Target: T1, human insulin (Homo sapiens, UniProt P01308)
T1 construct: gene INS; Human insulin (I2643, recombinant, expressed in yeast); 51 amino acids divided into two chains
Test: ThT fluorescence assay of insulin amyloid aggregation ([…] insulin, pH […] °C), supported by kinetics, AFM and ATR-FTIR
Type: biochemical

T1 sequence (P01308 25-54): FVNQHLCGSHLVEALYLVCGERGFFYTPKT
T1 sequence (P01308 90-110): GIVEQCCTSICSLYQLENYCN

**Q.** O=C(O[C@@H]1Cc2c(O)cc(O)cc2O[C@@H]1c1cc(O)c(O)c(O)c1)c1cc(O)c(O)c(O)c1 [EGCG, (-)-epigallocatechin gallate] was tested. Which IC50 did it give?
**A.** 476 ± 32.5 µM
